Data as given in ChEMBL document CHEMBL1201862, “PubChem BioAssay data set” (2004).
Where a name gives a salt, the structure may show the parent alone. Activity calls are given as the source filed them.

Key:
Genome polyprotein = Genome polyprotein (Hepatitis C virus, UniProt Q2Q167); assay: HCV core protein dimerization inhibitors, dose response, biochemical, TR-FRET (AID 2159); set-up: species or system Hepacivirus hominis;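 note: blocks dimerization of HCV core protein measured by TR-FRET between tagged core106 pairs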
Chain of Genome polyprotein (Q2Q167 whole entry): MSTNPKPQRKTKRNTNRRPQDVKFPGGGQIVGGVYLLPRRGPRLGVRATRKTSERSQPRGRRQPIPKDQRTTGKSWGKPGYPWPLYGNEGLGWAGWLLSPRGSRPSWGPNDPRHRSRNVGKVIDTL

[1] = molecular target: Signal transducer and activator of transcription 1-alpha/beta (Homo sapiens, UniProt P42224); assay: STAT1 signalling inhibitors, dose response, cell-based, NIH 3T3, luciferase reporter (AID 1396); type: functional
Chain of Signal transducer and activator of transcription 1-alpha/beta (P42224 whole entry): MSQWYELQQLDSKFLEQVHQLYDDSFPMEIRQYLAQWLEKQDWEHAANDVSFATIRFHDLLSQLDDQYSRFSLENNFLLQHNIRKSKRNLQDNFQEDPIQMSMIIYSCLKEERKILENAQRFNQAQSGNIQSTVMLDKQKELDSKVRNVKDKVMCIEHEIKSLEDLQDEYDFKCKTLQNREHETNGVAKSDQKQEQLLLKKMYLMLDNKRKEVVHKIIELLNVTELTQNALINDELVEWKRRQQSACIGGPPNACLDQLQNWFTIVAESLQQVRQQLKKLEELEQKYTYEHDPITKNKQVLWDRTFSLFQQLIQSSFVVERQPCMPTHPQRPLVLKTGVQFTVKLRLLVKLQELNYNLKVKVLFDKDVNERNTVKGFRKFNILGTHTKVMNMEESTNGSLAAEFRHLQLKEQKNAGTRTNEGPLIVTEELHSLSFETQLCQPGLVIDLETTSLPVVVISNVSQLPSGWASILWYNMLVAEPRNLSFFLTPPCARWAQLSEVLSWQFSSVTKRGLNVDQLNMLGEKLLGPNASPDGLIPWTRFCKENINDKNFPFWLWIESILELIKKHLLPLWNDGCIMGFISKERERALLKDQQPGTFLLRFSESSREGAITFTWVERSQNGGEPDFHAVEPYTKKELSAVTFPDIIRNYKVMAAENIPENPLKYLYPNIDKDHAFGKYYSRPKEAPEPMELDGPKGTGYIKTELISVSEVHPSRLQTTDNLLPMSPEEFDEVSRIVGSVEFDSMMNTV

H4 = assay: Luminescence Cell-Based Dose Response HTS to Identify Activators of 5'UTR Stem-Loop Driven Prion Protein mRNA Translation in H4 Neuroglioblastoma Cells. [Related pubchem assays: 1829 (Project Summary), 1814 (Primary HTS)]; type: functional; conditions: Homo sapiens
[2] = Luminescence Cell-Based Dose Confirmation HTS to Identify Activators of 5'UTR Stem-Loop Driven Alpha-Synuclein mRNA Translation in H4 Neuroglioblastoma Cells. [Related pubchem assays: 1829 (Project Summary), 1814 (Primary HTS)]; type: functional
[3] = Luminescence Cell-Based Dose Response HTS to Identify Activators of Luciferase Translation or Activity in H4 […] Cells. [Related pubchem assays: 1829 (Project Summary), 1814 (Primary HTS)]; type: functional
Transthyretin = Transthyretin (Homo sapiens, UniProt P02766); assay: Luminescence-based cell-based high throughput dose response assay to identify activators of Transthyretin (TTR) transcription.; type: functional
[4] = molecular target: T1, RNA-binding protein pos-1 (Caenorhabditis elegans, UniProt G5EF15); assay: inhibitors of POS-1/mex-3 RNA binding, dose response, biochemical, fluorescence polarization (AID 1964);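 note: purified POS-1 fused to maltose binding protein made in E. coli; potency of compounds blocking POS-1 binding to fluorescent RNA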
T1 sequence (G5EF15 whole entry): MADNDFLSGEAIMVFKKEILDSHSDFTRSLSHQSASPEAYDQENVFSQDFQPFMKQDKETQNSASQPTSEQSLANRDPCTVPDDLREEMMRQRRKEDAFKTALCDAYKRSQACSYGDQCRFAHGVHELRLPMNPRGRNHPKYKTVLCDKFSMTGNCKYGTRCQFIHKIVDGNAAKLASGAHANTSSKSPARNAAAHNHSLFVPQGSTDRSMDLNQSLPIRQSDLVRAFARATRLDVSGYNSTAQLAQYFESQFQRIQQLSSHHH

[5] = molecular target: T2, Zinc finger protein mex-5 (Caenorhabditis elegans, UniProt Q9XUB2); assay: MEX-5/TCR-2 RNA interaction inhibitors, dose response, biochemical, C. elegans, fluorescence polarization (AID 1960)
T2 sequence (Q9XUB2 whole entry): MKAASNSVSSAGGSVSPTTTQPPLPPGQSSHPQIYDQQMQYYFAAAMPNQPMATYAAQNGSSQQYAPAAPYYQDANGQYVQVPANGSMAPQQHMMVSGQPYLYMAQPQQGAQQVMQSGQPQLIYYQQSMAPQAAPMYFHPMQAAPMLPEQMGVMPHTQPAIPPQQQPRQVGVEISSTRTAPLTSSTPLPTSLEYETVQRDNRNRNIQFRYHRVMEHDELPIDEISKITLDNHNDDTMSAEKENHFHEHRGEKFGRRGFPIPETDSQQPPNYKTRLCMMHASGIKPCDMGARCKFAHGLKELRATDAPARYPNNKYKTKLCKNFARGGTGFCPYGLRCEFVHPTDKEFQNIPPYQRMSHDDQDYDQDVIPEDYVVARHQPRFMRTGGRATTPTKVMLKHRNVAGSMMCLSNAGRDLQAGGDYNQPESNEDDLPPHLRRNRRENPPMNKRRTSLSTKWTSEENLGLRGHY

[6] = molecular target: RNA-editing ligase 1, mitochondrial (Trypanosoma brucei brucei, UniProt P86926); assay: TbREL1 ligase inhibitors, dose response, biochemical, fluorescence, Trypanosoma brucei (AID 1117295); type: functional
Chain of RNA-editing ligase 1, mitochondrial (P86926 whole entry): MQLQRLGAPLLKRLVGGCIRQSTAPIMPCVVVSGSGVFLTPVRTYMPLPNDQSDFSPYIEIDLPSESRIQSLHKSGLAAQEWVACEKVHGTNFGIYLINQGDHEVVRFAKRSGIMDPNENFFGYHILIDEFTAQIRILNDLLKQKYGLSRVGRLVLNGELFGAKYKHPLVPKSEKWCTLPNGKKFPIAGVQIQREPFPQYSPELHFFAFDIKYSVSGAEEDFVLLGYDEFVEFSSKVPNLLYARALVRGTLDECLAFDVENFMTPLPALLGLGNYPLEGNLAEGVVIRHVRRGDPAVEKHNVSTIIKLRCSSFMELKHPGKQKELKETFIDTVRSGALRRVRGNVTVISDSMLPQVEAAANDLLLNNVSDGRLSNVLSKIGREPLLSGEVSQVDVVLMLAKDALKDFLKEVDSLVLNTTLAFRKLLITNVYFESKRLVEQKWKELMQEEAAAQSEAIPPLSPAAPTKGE

Caspase-6 = molecular target: T3, Caspase-6 (Homo sapiens, UniProt P55212); assay: human caspase-6 inhibitors, dose response, biochemical, VEID-R110 fluorescence, cherry-pick (AID 720632)
T3 sequence (P55212 whole entry): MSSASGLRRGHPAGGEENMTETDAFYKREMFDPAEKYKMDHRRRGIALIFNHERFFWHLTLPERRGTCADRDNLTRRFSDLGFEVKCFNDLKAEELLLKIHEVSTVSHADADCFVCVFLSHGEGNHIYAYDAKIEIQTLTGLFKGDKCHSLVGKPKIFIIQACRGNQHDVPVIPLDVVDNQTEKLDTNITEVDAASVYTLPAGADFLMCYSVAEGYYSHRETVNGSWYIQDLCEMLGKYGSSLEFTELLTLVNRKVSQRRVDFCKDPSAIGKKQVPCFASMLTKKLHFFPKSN

[7] = molecular target: T4, Carboxy-terminal domain RNA polymerase II polypeptide A small phosphatase 1 (Homo sapiens, UniProt Q9GZU7); assay: inhibitors of CTDSP1, concentration-response testing, biochemical assay, absorbance-based, actives from ultra-high-throughput screening (AID 540297); type: functional
T4 sequence (Q9GZU7 whole entry): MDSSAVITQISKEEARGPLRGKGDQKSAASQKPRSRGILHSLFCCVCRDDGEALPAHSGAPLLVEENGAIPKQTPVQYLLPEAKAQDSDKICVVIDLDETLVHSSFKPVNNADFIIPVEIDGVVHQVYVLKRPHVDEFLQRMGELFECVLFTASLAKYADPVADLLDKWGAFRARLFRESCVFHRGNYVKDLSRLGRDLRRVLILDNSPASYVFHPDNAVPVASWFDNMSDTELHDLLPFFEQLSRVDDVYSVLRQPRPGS

[8] = molecular target: T5, Low molecular weight phosphotyrosine protein phosphatase (Homo sapiens, UniProt P24666); assay: LMPTP phosphatase inhibitors, dose response, biochemical, OMFP substrate, fluorescence intensity, set 2 (AID 743307); type: functional
T5 sequence (P24666 whole entry): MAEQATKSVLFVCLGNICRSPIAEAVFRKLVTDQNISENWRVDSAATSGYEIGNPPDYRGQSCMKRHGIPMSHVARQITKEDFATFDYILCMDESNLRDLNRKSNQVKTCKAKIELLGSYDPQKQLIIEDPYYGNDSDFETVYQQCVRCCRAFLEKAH

[9] = molecular target: T5, Low molecular weight phosphotyrosine protein phosphatase; assay: LMPTP phosphatase inhibitors, colorimetric pNPP readout, dose response, orthogonal assay, biochemical, absorbance, pNPP substrate, LMPTP-A isoform, set 2 (AID 743308); type: functional
[10] = molecular target: G-protein coupled receptor 183 (Homo sapiens, UniProt P32249); assay: SAR confirmation of small molecule antagonists of the EBI2 receptor via a luminescent beta-arrestin assa.; type: functional
Chain of G-protein coupled receptor 183 (P32249 whole entry): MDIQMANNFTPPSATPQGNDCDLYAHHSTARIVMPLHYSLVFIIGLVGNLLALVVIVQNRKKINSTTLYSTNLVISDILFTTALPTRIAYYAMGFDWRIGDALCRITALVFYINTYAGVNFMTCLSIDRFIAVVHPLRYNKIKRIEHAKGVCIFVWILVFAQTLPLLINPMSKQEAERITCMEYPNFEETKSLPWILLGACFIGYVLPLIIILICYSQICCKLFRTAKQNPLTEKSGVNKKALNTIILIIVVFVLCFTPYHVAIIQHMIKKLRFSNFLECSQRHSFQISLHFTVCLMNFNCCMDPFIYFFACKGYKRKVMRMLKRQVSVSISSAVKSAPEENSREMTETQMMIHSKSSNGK

[11] = Dose-response inhibition of insulin secretion in a rat insulinoma line at 5 mM glucose (AID 1117331); type: functional, cell-based; conditions: INS-1E
cells = type: functional, cell-based; conditions: INS-1E

For Cc1ccc(S(=O)(=O)N2Cc3ccccc3CC2C(=O)Nc2ccc3c(c2)OCO3)cc1 (stereo unspecified), the IC50 (Genome polyprotein) was > 49.8 µM (not active).

With O=C(c1ccco1)N1CCN(c2[nH]cnc3c4ccccc4nc2-3)CC1 the IC50 [1] was 16.9 µM (not active).

For O=C/C(=C\Nc1ccccn1)c1nc2ccccc2o1, the EC50 (H4) was 32.7 µM (active), the EC50 [2] was > 120 µM (not active) and the EC50 [3] was 10.2 µM (active). The EC50 (Transthyretin) was > 167 µM (inactive), the EC50 [4] was > 300 µM (not active) and the EC50 [5] was > 300 µM (not active).

With O=C(N/N=C/c1ccc(OC(=O)c2ccccc2Cl)cc1)c1cc(O)cc(O)c1 the IC50 [6] was 41 µM (inactive), the AC50 (Caspase-6) was 1.11 µM (active) and the IC50 [7] was 1.4 µM (active).

With CN(C)CCNc1cc(-c2ccccc2)nc2ccccc12 the IC50 [8] was 5.72 µM (active) and the IC50 [9] was 12 µM (active).

With O=C(/C=C/c1ccc(Br)cc1)N1CCN(Cc2ccc(Cl)cc2C(F)(F)F)CC1 the IC50 [10] was 0.00523 µM (active).

With CN(C)CC[C@@H](c1ccc(Br)cc1)c1ccccn1 [DEXBROMPHENIRAMINE MALEATE] the IC50 [11] was 3.76 µM (active) and the IC50 (cells) was 6.37 µM (inactive).
